In PubChem BioAssay (NCI):
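Where inhibition never reached the appropriate level, the endpoint shown equals the highest concentration tested. Otherwise, values were interpolated linearly from a five-concentration, 48-hour dose response in 96-well plates. Abbreviation: GI50, concentration required for 50% inhibition of growth. TGI denotes the concentration required for complete inhibition of growth.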

Key:
Assay in all cases: NCI anticancer screen, dose series, 48 h
786-0 renal = tested on: 786-0 renal
A498 renal = tested on: A498 renal
A549 NSCLC = tested on: A549 NSCLC
ACHN renal = tested on: ACHN renal
BT-549 breast = tested on: BT-549 breast
CAKI-1 renal = tested on: CAKI-1 renal
CCRF-CEM leukemia = tested on: CCRF-CEM leukemia
COLO 205 colon = tested on: COLO 205 colon
DU-145 prostate = tested on: DU-145 prostate
HCC-2998 colon = tested on: HCC-2998 colon
HCT-116 colon = tested on: HCT-116 colon
HCT-15 colon = tested on: HCT-15 colon
HL-60(TB) leukemia = tested on: HL-60(TB) leukemia
HOP-62 NSCLC = tested on: HOP-62 NSCLC
HOP-92 NSCLC = tested on: HOP-92 NSCLC
HS 578T breast = tested on: HS 578T breast
HT29 colon = tested on: HT29 colon
IGROV1 ovarian = tested on: IGROV1 ovarian
K-562 leukemia = tested on: K-562 leukemia
KM12 colon = tested on: KM12 colon
LOX IMVI melanoma = tested on: LOX IMVI melanoma
M14 melanoma = tested on: M14 melanoma
MALME-3M melanoma = tested on: MALME-3M melanoma
MCF7 breast = tested on: MCF7 breast
MDA-MB-231 breast = tested on: MDA-MB-231 breast
MDA-MB-435 = tested on: MDA-MB-435
MOLT-4 leukemia = tested on: MOLT-4 leukemia
NCI-H226 lung = tested on: NCI-H226 lung
NCI-H23 lung = tested on: NCI-H23 lung
NCI-H460 lung = tested on: NCI-H460 lung
NCI-H522 lung = tested on: NCI-H522 lung
NCI/ADR-RES ovarian = tested on: NCI/ADR-RES ovarian
OVCAR-3 ovarian = tested on: OVCAR-3 ovarian
OVCAR-4 ovarian = tested on: OVCAR-4 ovarian
OVCAR-5 ovarian = tested on: OVCAR-5 ovarian
OVCAR-8 ovarian = tested on: OVCAR-8 ovarian
PC-3 prostate = tested on: PC-3 prostate
RPMI-8226 leukemia = tested on: RPMI-8226 leukemia
RXF 393 renal = tested on: RXF 393 renal
SF-268 CNS = tested on: SF-268 CNS
SF-295 CNS = tested on: SF-295 CNS
SF-539 CNS = tested on: SF-539 CNS
SK-MEL-2 melanoma = tested on: SK-MEL-2 melanoma
SK-MEL-28 melanoma = tested on: SK-MEL-28 melanoma
SK-MEL-5 melanoma = tested on: SK-MEL-5 melanoma
SK-OV-3 ovarian = tested on: SK-OV-3 ovarian
SN12C renal = tested on: SN12C renal
SNB-19 CNS = tested on: SNB-19 CNS
SNB-75 CNS = tested on: SNB-75 CNS
SR leukemia = tested on: SR leukemia
SW-620 colon = tested on: SW-620 colon
T-47D breast = tested on: T-47D breast
TK-10 renal = tested on: TK-10 renal
U251 CNS = tested on: U251 CNS
UACC-257 melanoma = tested on: UACC-257 melanoma
UACC-62 melanoma = tested on: UACC-62 melanoma
UO-31 renal = tested on: UO-31 renal

## O=C(Nc1cccc(-n2cc(-c3ccncc3)c(-c3ccc(Cl)c(O)c3)n2)c1)Nc1ccc(Cl)c(C(F)(F)F)c1
786-0 renal
  GI50: 1020 nM
  TGI: 8250 nM
A498 renal
  GI50: 1240 nM
  TGI: 7930 nM
A549 NSCLC
  GI50: 914 nM
  TGI: 4070 nM
ACHN renal
  GI50: 890 nM
  TGI: 32500 nM
BT-549 breast
  GI50: 1160 nM
  TGI: 5360 nM
CAKI-1 renal
  GI50: 726 nM
  TGI: 2300 nM
CCRF-CEM leukemia
  GI50: 719 nM
  TGI: 2700 nM
COLO 205 colon
  GI50: 2230 nM
  TGI: 6730 nM
DU-145 prostate
  GI50: 1160 nM
  TGI: 4510 nM
HCC-2998 colon
  GI50: 1390 nM
  TGI: 6230 nM
HCT-116 colon
  GI50: 938 nM
  TGI: 3630 nM
HCT-15 colon
  GI50: 949 nM
  TGI: 10300 nM
HL-60(TB) leukemia
  GI50: 1230 nM
  TGI: 8990 nM
HOP-62 NSCLC
  GI50: 1040 nM
  TGI: 4750 nM
HOP-92 NSCLC
  GI50: 310 nM
  TGI: 1290 nM
HS 578T breast
  GI50: 1050 nM
  TGI: 15700 nM
HT29 colon
  GI50: 2050 nM
  TGI: 7110 nM
IGROV1 ovarian
  GI50: 770 nM
  TGI: 2430 nM
K-562 leukemia
  GI50: 768 nM
  TGI: 9360 nM
KM12 colon
  GI50: 910 nM
  TGI: 3430 nM
LOX IMVI melanoma
  GI50: 554 nM
  TGI: 1150 nM
M14 melanoma
  GI50: 805 nM
  TGI: 2300 nM
MALME-3M melanoma
  GI50: 557 nM
  TGI: 1580 nM
MCF7 breast
  GI50: 663 nM
  TGI: 32500 nM
MDA-MB-231 breast
  GI50: 538 nM
  TGI: 1480 nM
MDA-MB-435
  GI50: 640 nM
  TGI: 1660 nM
MOLT-4 leukemia
  GI50: 777 nM
  TGI: 2930 nM
NCI-H226 lung
  GI50: 1330 nM
  TGI: 14600 nM
NCI-H23 lung
  GI50: 1040 nM
  TGI: 4000 nM
NCI-H460 lung
  GI50: 963 nM
  TGI: 3690 nM
NCI-H522 lung
  GI50: 643 nM
  TGI: 2190 nM
NCI/ADR-RES ovarian
  GI50: 1010 nM
  TGI: 9460 nM
OVCAR-3 ovarian
  GI50: 658 nM
  TGI: 1950 nM
OVCAR-4 ovarian
  GI50: 1120 nM
  TGI: 27200 nM
OVCAR-5 ovarian
  GI50: 1710 nM
  TGI: 12300 nM
OVCAR-8 ovarian
  GI50: 759 nM
  TGI: 2280 nM
PC-3 prostate
  GI50: 533 nM
  TGI: 2110 nM
RPMI-8226 leukemia
  GI50: 487 nM
  TGI: 1670 nM
RXF 393 renal
  GI50: 557 nM
  TGI: 1670 nM
SF-268 CNS
  GI50: 1110 nM
  TGI: 6650 nM
SF-295 CNS
  GI50: 656 nM
  TGI: 1710 nM
SF-539 CNS
  GI50: 730 nM
  TGI: 2200 nM
SK-MEL-2 melanoma
  GI50: 784 nM
  TGI: 1680 nM
SK-MEL-28 melanoma
  GI50: 928 nM
  TGI: 3210 nM
SK-MEL-5 melanoma
  GI50: 528 nM
  TGI: 1040 nM
SK-OV-3 ovarian
  GI50: 1270 nM
  TGI: 9730 nM
SN12C renal
  GI50: 1050 nM
  TGI: 10300 nM
SNB-19 CNS
  GI50: 1170 nM
  TGI: 5310 nM
SNB-75 CNS
  GI50: 514 nM
  TGI: 5050 nM
SR leukemia
  GI50: 663 nM
  TGI: 2050 nM
SW-620 colon
  GI50: 1070 nM
  TGI: 3770 nM
T-47D breast
  GI50: 911 nM
  TGI: 9010 nM
TK-10 renal
  GI50: 1330 nM
  TGI: 7520 nM
U251 CNS
  GI50: 542 nM
  TGI: 1270 nM
UACC-257 melanoma
  GI50: 705 nM
  TGI: 1880 nM
UACC-62 melanoma
  GI50: 609 nM
  TGI: 1470 nM
UO-31 renal
  GI50: 738 nM
  TGI: 2590 nM
